Data reported in patent US20100189813A1, “Cidal formulations and methods of use” (priority 2006, published 2010).

What was measured:
Anopheles mosquitoes = assay: Anopheles mosquito larvae survivorship on exposure to copper; type: in vivo
Source text: A solution in water of copper sulphate pentahydrate at 5 weight percent was used to treat Anopheles mosquitoes. The mosquitoes were wild caught and they were not separated by larval stage so there is some variability in the response to the test. The data is based upon 1000 larvae per treatment. Amounts of copper were used at 0.37 ppm, 0.88 ppm, 1.47 ppm, and 8.4 ppm. […] The Y-axis is the percentage of survivorship and the X-axis is the number of days of exposure.
The tests were repeated wherein a copper compound in inert carrier was treated with a detergent as an additive to determine if the additive increased the efficacy of the copper. […] The first control is FIG. 2, Stage 1 larvae, the duplicate control, Stage 1 larvae, is FIG. 3 wherein, in both Figures, the Y-axis is the percentage of survivorship and the X-axis is the number of days of exposure.
Kathon was added at 0.02 weight percent. […] The Y-axis is the percentage of survivorship and the X-axis is the number of days of exposure.
The copper was used at the 0.25 ppm level. […] The Y-axis is the percentage of survivorship and the X-axis is the number of days of exposure.

aerial bacteria = assay: Agar growth media plates left open to the atmosphere for 6 hours (disinfectant efficacy), bacteria; type: cell-based; conditions: copper sulphate at 5%; plates open 6 hours
Description: (§1) 1. The Unformulated composition containing 5 weight percent of copper sulphate in an inert carrier was added directly to growth media, namely, Agar, in order to evaluate it's efficacy as a disinfectant. 2. The same solution was added to bacteria and its growth was monitored by optical density readings as a function of time. 3. The same solution alone or in combination with a detergent was added to bacteria or fungi and incubated for 10 minutes or 60 minutes and the incubation mix was plated on to agar growth media in order to estimate survival.
(§2) a. The Unformulated composition at different concentrations was added to live bacterial agar media and the agar plates were exposed to the atmosphere by keeping the Petri plates open to the atmosphere for 6 hours. By doing this it was expected to allow aerial bacteria to grow in the plates.
(§3) Control plates without the Unformulated composition contained confluent colonies of bacteria (infinite) and fungi.

fungi = assay: Agar growth media plates left open to the atmosphere for 6 hours (disinfectant efficacy), fungi; type: cell-based; conditions: copper sulphate at 5%; plates open 6 hours
Description: as §1, §2, §3

E. Coli bacteria = assay: Incubation for 10 or 60 minutes, then plating on agar to estimate survival, bacteria; type: cell-based; conditions: detergent alone
Description: Three different types of experiments were conducted in order to assess the efficacy of an inventive solution on E. Coli bacteria and fungi.
as §1
c. Bacteria with the Unformulated composition was incubated for 10 minutes or 60 minutes before plating them. […] Because of the closeness of the data points, the inventors herein would point out that the top line is the control, the next set of lines lower are constituted of 0.1, 0.2, 0.3, 0.4, 0.5 of ET and 1 ml Matrix, while the bottom set of lines are constituted of 2 ml Matrix, 3 ml Matrix, 3 ml Matrix, 4 ml Matrix, and 5 ml of Matrix.
4. The effect of adding detergents, that is, sodium dodecyl sulfate to the Unformulated composition.
The detergent alone allowed growth up to a concentration of 0.2%. […]

O.O.O.O.O.O=S(=O)([O-])[O-].[Cu+2] [copper sulphate pentahydrate]
survivorship (Anopheles mosquitoes; 0.37 ppm copper, wild caught larvae not separated by larval stage, 1000 larvae per treatment): ~100% | no-effect dose (Anopheles mosquitoes; copper, first part of the experiment, no detergent): 0.37 ppm | death of larvae (Anopheles mosquitoes; more than 0.8 ppm copper (0.88, 1.47, 8.4 ppm tested), by day 3, wild caught larvae): died by day 3 | bacterial growth on plates (aerial bacteria): allowed bacterial growth | fungal growth on plates (fungi): allowed no fungal growth

CCCCCCCCCCCCOS(=O)(=O)[O-].[Na+] [sodium dodecyl sulfate]
concentration at which bacterial growth was still allowed (E. Coli bacteria): ≤ 0.2%
